In PubChem BioAssay AID1963450 (Molecular Pharmacology Branch, DTP, NCI, 2024):

Tested on: 556581-035-R-J1-PDC complex spheroid growth
Experiment: Anticancer human tumor 556581-035-R-J1-PDC patient-derived ovarian carcinoma cell line growth inhibition [Asc]
Settings: for IC50: curve of first compound; for viability, T/C: stronger effect = lower value
Protocol: Multicellular complex tumor spheroid response to apoptosis pathway targeting inhibitors Alrizomadlin, Pelcitoclax, and Dasminapant in combination with a variety of drugs and investigational agents in selected tumor cell lines
The MDM2 inhibitor alrizomadlin, the Bcl-2/Bcl-xL inhibitor pelcitoclax, and the IAPs inhibitor dasminapant were evaluated both individually and in combination with standard of care and investigational anticancer small molecules within a complex spheroid model of solid tumors. . Complex spheroids include a stromal component modeled by human endothelial cells (HUVEC) and fibroblasts modeled by human mesenchymal stem cells (MSCs). The concentration ranges selected for each drug and investigational agent were based upon clinically achievable concentrations if the clinical Cmax of the agent was known.
Compounds. The drugs and investigational agents: alrizomadlin (APG-115; NSC831270), pelcitoclax (APG-1252; NSC835773), dasminapant (APG-1387;NSC834197), TAK-243 (NSC785004), copanlisib (NSC809693), olaparib (NSC753686), talazoparib (NSC767125), cobimetinib (NSC 768068), eltanexor (KPT-8602, NSC 794443), abemaciclib (NSC 768073), sotorasib (NSC818433), adagrasib (NSC 831453), MRTX-1133 (NSC 836407), Iadademestat (ORY1001, NSC 806812), and RMC-4630 (NSC839698), were obtained from the NCI Developmental Therapeutics Program Chemical Repository. The FDA-approved anticancer drug set is available from the Developmental Therapeutics Program at https://dtp.cancer.gov/organization/dscb/obtaining/available plates.htm. […] The stock solutions were prepared in dimethyl sulfoxide (DMSO, Sigma-Aldrich, St. Louis, MO, cat. D2650) at 800-fold the tested concentration and stored at -70 degrees C prior to their use. All drugs and investigational agents were tested over a range starting from a high concentration at or near the clinical Cmax and decreasing in half-log increments. If the clinical Cmax for an agent had not been determined, the highest concentration tested was 10 microM.
The patient-derived cancer (PDC) cell lines include five colon adenocarcinomas: 186277-243-T-J2-PDC, 616215-338-R-J1-PDC, 439559-082-T-J2-PDC, 463943-066-T-J2-PDC, and 519858-162-T-J1-PDC; three pancreatic carcinomas: 323965-272-R-J2-PDC, 521955-158-R6-J3-PDC, and 521955-158-R2-J5-PDC; two uterine sarcomas: 327498-152-R-J2-PDC and 993429-296-R-J1-PDC; two rhabdomyosarcomas: 755483-174-R-J1-PDC and 772245-204-R-J1-PDC; two soft tissue sarcomas: 126254-015-R-J1-PDC and 494315-158-R-J1-PDC; two malignant fibrous histiocytomas: 317291-083-R-J1-PDC and 596521-263-R-J1-PDC; two breast carcinomas: 171881-019-R-J1-PDC and 885512-296-R-J2-PDC; and one ovarian carcinoma: 6556581-035-R-J-PDC were obtained from the NCI PDMR, (https://pdmr.cancer.gov). The established cell lines HSSY-2 synovial sarcoma (RRID:CVCL 8719), SYO-1 synovial sarcoma (RRID:CVCL_7146), MPNST malignant peripheral neural sheath tumor were obtained from the Sloan Kettering Institute. The following established cell lines were purchased from the American Type Culture Collection (ATCC, Manassas, VA), Sor the received from the NCI repository:, PANC-1 pancreatic carcinoma (CRL-1469, RRID:CVCL_0480), OVCAR-5 ovarian carcinoma (RRID:CVCL_1628), OVCAR-8 ovarian carcinoma (RRID:CVCL_1629), , MCF-7 breast carcinoma (CRL-12584, RRID:CVCL_0031), MDA-MB-231 breast carcinoma (CRL-12532, RRID:CVCL_0062), NCI-H1876 small cell lung carcinoma (CRL-5902, RRID:CVCL_1503), NCI-H510A small cell lung carcinoma (HTB-184, RRID:CVCL_1565), NCI-H1417 (CRL-5869, RRID:CVCL_1469), and NCI-H196 small cell lung carcinoma (CRL-5823, RRID:CVCL_1509). Dr. Peter Houghton (Greehey Children's Cancer Research Institute, University of Texas Health Science Center, San Antonio, TX) provided Rh-18 rhabdomyosarcoma (RRID:CVCL_1659). Pooled donor human umbilical vein endothelial cells (HUVEC, Lonza, cat. CC-2519) and human mesenchymal stem cells (hMSC, Lonza, cat. PT-2501) were purchased from Lonza (Walkersville, MD).
Cell Culture. […]

[1] = second compound 0.03 µM, first compound 0.0316 µM
[2] = second compound 0.03 µM, first compound 0.1 µM
[3] = second compound 0.03 µM, first compound 0.316 µM
[4] = second compound 0.03 µM, first compound 1 µM
[5] = second compound 0.0949 µM, first compound 0.0316 µM
[6] = second compound 0.0949 µM, first compound 0.1 µM
[7] = second compound 0.0949 µM, first compound 0.316 µM
[8] = second compound 0.0949 µM, first compound 1 µM
[9] = second compound 0.3 µM, first compound 0.0316 µM
[10] = second compound 0.3 µM, first compound 0.1 µM
[11] = second compound 0.3 µM, first compound 0.316 µM
[12] = second compound 0.3 µM, first compound 1 µM
[13] = second compound 0.949 µM, first compound 0.0316 µM
[14] = second compound 0.949 µM, first compound 0.1 µM
[15] = second compound 0.949 µM, first compound 0.316 µM
[16] = second compound 0.949 µM, first compound 1 µM
[17] = second compound 3 µM, first compound 0.0316 µM
[18] = second compound 3 µM, first compound 0.1 µM
[19] = second compound 3 µM, first compound 0.316 µM
[20] = second compound 3 µM, first compound 1 µM
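Note: spheroids exposed to agents for 7 days before viability read.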

Row | SMILES | IC50 (second compound 0.03 µM) [nM] | IC50 (second compound 0.0949 µM) [nM] | IC50 (second compound 0.3 µM) [nM] | IC50 (second compound 0.949 µM) [nM] | IC50 (second compound 3 µM) [nM] | viability, T/C [1] [%] | viability, T/C [2] [%] | viability, T/C [3] [%] | viability, T/C [4] [%] | viability, T/C [5] [%] | viability, T/C [6] [%] | viability, T/C [7] [%] | viability, T/C [8] [%] | viability, T/C [9] [%] | viability, T/C [10] [%] | viability, T/C [11] [%] | viability, T/C [12] [%] | viability, T/C [13] [%] | viability, T/C [14] [%] | viability, T/C [15] [%] | also measured
1 | COc1c(OCCCN2CCOCC2)ccc2c3n(c(=NC(=O)c4cnc(N)nc4)nc12)CCN3 + CCN1C(C(=O)NC23CCC(C(=O)O)(CC2)CC3)C(c2cccc(Cl)c2F)C2(C(=O)Nc3cc(Cl)ccc32)C12CCCCC2 | 58.9 | 42.7 | 39.4 | 51.1 | 33.3 | 59.2 | 43.3 | 20 | 13.4 | 51.7 | 39.3 | 25.7 | 13.5 | 50.2 | 39 | 22.5 | 15.4 | 58.2 | 40.2 | 21.6 | viability, T/C (second compound 0.03 µM, first compound 0.00316 µM): 71.9%; viability, T/C (second compound 0.03 µM, first compound 0.01 µM): 65.5%; viability, T/C (second compound 0.0949 µM, first compound 0.00316 µM): 78.3%; viability, T/C (second compound 0.0949 µM, first compound 0.01 µM): 70.1%; viability, T/C (second compound 0.3 µM, first compound 0.00316 µM): 76.7%; viability, T/C (second compound 0.3 µM, first compound 0.01 µM): 70%; viability, T/C (second compound 0.949 µM, first compound 0.00316 µM): 78.3%; viability, T/C (second compound 0.949 µM, first compound 0.01 µM): 75.2%; viability, T/C [16]: 45.8%; viability, T/C (second compound 3 µM, first compound 0.00316 µM): 62.2%; viability, T/C (second compound 3 µM, first compound 0.01 µM): 57.9%; viability, T/C [17]: 46.7%; viability, T/C [18]: 45.5%; viability, T/C [19]: 27.5%; viability, T/C [20]: 14.6%
2 | C=C(F)C(=O)N1CCN(c2nc(OCC3CCCN3C)nc3c2CCN(c2cccc4cccc(Cl)c24)C3)CC1CC#N (stereo not given) + CCN1C(C(=O)NC23CCC(C(=O)O)(CC2)CC3)C(c2cccc(Cl)c2F)C2(C(=O)Nc3cc(Cl)ccc32)C12CCCCC2 | 3800 | 3860 | 3880 | 4390 | 2670 | 92.1 | 97.3 | 112 | 94.5 | 114 | 102 | 90.8 | 87.8 | 103 | 92.5 | 103 | 81.6 | 91.7 | 99.2 | 98.3 | viability, T/C (second compound 0.03 µM, first compound 3.16 µM): 59%; viability, T/C (second compound 0.03 µM, first compound 10 µM): 3.04%; viability, T/C (second compound 0.0949 µM, first compound 3.16 µM): 62.5%; viability, T/C (second compound 0.0949 µM, first compound 10 µM): 3.7%; viability, T/C (second compound 0.3 µM, first compound 3.16 µM): 61.4%; viability, T/C (second compound 0.3 µM, first compound 10 µM): 3.01%; viability, T/C [16]: 84.9%; viability, T/C (second compound 0.949 µM, first compound 3.16 µM): 65.6%; viability, T/C (second compound 0.949 µM, first compound 10 µM): 12.3%; viability, T/C [17]: 89.8%; viability, T/C [18]: 105%; viability, T/C [19]: 92.5%; viability, T/C [20]: 79.2%; viability, T/C (second compound 3 µM, first compound 3.16 µM): 45.2%; viability, T/C (second compound 3 µM, first compound 10 µM): 2.9%
